Results from patent publication US10081660B2, “Polynucleotide, polypeptide with immunosuppressive activity, expression cassette, expression vector, host cell, pharmaceutical composition, methods for producing a polypeptide with immunosuppressive activity and for preventing or treating conditions that require immunosuppression, and use of a …” (FUNDAÇÃO BUTANTAN, priority 2013, dated 2018).
Ends that are not written are not given here.

T1: human fibrinogen (Homo sapiens, UniProt P02671+P02675+P02679)
T1 sequence (P02671 20-629 limits assumed): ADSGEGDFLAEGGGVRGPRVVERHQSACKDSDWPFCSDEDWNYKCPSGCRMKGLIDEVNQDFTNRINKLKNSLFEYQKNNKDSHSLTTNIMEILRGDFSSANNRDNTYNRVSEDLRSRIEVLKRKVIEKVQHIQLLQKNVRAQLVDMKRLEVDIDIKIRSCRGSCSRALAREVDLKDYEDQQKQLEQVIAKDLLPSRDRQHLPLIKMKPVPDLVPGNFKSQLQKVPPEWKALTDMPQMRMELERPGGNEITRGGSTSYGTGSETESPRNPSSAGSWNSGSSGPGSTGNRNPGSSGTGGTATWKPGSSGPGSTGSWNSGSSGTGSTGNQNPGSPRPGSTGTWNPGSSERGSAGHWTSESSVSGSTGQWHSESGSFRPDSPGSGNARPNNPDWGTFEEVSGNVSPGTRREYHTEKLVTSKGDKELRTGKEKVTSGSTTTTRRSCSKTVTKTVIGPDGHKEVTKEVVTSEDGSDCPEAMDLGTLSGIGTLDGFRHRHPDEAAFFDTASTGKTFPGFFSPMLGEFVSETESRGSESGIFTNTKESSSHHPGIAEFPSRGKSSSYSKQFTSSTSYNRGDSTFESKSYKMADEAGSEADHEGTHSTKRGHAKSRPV
T1 sequence (P02675 31-491): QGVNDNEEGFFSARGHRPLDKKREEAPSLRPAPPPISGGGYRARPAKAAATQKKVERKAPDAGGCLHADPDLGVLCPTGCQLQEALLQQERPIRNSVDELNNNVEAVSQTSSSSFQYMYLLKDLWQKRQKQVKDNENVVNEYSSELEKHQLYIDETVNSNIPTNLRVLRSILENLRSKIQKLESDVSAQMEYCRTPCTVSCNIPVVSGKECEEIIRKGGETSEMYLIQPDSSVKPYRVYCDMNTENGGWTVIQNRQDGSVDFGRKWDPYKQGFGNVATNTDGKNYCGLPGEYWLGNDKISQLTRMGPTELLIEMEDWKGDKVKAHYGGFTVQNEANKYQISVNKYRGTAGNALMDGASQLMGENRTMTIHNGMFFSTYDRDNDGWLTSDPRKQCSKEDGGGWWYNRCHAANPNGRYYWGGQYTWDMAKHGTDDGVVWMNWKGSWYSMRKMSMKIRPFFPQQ
T1 sequence (P02679 27-433 limits assumed): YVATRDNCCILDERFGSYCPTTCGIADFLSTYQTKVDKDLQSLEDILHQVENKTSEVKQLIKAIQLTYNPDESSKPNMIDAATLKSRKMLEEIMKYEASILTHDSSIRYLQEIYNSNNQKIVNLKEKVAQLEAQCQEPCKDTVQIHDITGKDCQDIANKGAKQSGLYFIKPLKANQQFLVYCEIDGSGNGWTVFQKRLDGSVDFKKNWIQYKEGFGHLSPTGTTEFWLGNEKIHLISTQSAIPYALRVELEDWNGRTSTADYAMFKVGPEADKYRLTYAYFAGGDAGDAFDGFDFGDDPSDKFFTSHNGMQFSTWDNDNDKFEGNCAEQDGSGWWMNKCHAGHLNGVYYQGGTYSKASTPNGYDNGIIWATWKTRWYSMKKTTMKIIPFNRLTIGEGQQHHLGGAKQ

B1: recombinant polypeptide: SEQ ID NO: 2 plus six histidine residues, T7 phage protein 10 portion and enterokinase site; approximately 30 kDa, expressed in E. coli (protein)
chain: MRGSHHHHHHGMASMTGGQQMGRDLYDDDDKDRWGSELFSQKYIELVVVADHGMFTKYNGNLNTIRTRVHEIVNTLNGFYRSLNIHISLTDLEIWSNQDLINVQSAAADTLKTFGEWRERVLLNRISHDNAQLLTAIDLADNTIGIAYTGGMCYPKNSVGIVQDHSPKTLLIAVTMAHELGHNLGMKHDENHCHCSASFCIMPPSLSEGPSYEFSDCSKDYYEMFLTKRKPQCILNKPWYHGIRSLIRLLTKPERKLSWLLPPLSNN

Legend:
HIII mice = experiment: Immunosuppressive activity against soluble antigen (human gamma globulin, HGG), anti-HGG antibodies by ELISA; assay type: in vivo; settings: for suppression of anti-HGG antibody production: single 3 μg dose intraperitoneally, HGG on Al(OH)3 after 24 hours
Method: The immunosuppressive activity can also be evaluated against a soluble antigen, such as human gamma globulin (HGG), adsorbed in aluminum hydroxide, and the antibodies titer determined by ELISA.
Titers were determined by ELISA and calculated considering the highest dilution of experimental sera whose O.D. (optical density) was five times higher than those obtained for normal serum at the same dilution.
The immunosuppressive activity of the synthetic polypeptide P2 (SEQ ID NO: 5) and P6 (SEQ ID NO: 9) was evaluated against HGG, taking into account immunosuppression time after preventive treatment and antigen inoculation. In all protocols, animals received a single dose of the tested polypeptides. In this experiment, the HIII mice (5 animals/group) were treated intraperitoneally with 3 μg of P6 or 3 μg of P2, and after 24 hours, were immunized intraperitoneally with HGG adsorbed on Al(OH)3 (10 μg/animal); The untreated group was used as a positive control receiving only HGG. […] The negative control was represented by a group called normal serum, i.e., serum from untreated and non-immunized animals. O.D. values obtained from the 1:500 dilution were presented herein as average+standard deviation and were statistically analyzed by Student t test. Values were considered significant when p<0.0001 (***); p<0.005 (**); p<0.05 (*) compared to the positive control, i.e., animals immunized only with HGG. Thus, the HIII mice groups received polypeptides SEQ ID NO: 22, P2 and P6.

Lineage HIII mice [1] = experiment: Immunogenicity analysis: anti-polypeptide antibodies by ELISA after immunization; assay type: in vivo; settings: intraperitoneal, bleeding seven days after immunization
Method: The immunogenicity is the capacity of a substance to induce an immune response. To evaluate the immunogenic potential of this invention's polypeptides, the antibody production is determined by the dosage of antibodies titer by ELISA after administration of the present invention polypeptides in potent adjuvants.
Anti-recombinant polypeptide antibodies were measured by ELISA. […] The reactions were developed by the addition of anti-mice-IgG conjugated to peroxidase (1: 7,500), followed by addition of OPD (o-Phenylenediamine dihydrochloride) and H2O2. The reading of the reactions was performed at λ492 nm on a plate spectrophotometer. The titer was established as the highest dilution of experimental sera which optical densities were three times higher than those obtained for normal serum at the same dilution. The data correspond to values obtained from two independent experiments. The significance between different groups (6 animals/group) was p<0.01.
One group was used as a positive control, receiving human gamma globulin (HGG). Bleeding was performed seven days after immunization and antibody production was assessed by ELISA.

[2] = molecular target: C3 component of human complement system (Homo sapiens, UniProt P01024); experiment: Cleavage of C3 component (SDS-PAGE); assay type: biochemical; settings: 9 μg human C3, 5 μg polypeptide, 37° C. for 5 hours
C3 component of human complement system, sequence (P01024 23-1663): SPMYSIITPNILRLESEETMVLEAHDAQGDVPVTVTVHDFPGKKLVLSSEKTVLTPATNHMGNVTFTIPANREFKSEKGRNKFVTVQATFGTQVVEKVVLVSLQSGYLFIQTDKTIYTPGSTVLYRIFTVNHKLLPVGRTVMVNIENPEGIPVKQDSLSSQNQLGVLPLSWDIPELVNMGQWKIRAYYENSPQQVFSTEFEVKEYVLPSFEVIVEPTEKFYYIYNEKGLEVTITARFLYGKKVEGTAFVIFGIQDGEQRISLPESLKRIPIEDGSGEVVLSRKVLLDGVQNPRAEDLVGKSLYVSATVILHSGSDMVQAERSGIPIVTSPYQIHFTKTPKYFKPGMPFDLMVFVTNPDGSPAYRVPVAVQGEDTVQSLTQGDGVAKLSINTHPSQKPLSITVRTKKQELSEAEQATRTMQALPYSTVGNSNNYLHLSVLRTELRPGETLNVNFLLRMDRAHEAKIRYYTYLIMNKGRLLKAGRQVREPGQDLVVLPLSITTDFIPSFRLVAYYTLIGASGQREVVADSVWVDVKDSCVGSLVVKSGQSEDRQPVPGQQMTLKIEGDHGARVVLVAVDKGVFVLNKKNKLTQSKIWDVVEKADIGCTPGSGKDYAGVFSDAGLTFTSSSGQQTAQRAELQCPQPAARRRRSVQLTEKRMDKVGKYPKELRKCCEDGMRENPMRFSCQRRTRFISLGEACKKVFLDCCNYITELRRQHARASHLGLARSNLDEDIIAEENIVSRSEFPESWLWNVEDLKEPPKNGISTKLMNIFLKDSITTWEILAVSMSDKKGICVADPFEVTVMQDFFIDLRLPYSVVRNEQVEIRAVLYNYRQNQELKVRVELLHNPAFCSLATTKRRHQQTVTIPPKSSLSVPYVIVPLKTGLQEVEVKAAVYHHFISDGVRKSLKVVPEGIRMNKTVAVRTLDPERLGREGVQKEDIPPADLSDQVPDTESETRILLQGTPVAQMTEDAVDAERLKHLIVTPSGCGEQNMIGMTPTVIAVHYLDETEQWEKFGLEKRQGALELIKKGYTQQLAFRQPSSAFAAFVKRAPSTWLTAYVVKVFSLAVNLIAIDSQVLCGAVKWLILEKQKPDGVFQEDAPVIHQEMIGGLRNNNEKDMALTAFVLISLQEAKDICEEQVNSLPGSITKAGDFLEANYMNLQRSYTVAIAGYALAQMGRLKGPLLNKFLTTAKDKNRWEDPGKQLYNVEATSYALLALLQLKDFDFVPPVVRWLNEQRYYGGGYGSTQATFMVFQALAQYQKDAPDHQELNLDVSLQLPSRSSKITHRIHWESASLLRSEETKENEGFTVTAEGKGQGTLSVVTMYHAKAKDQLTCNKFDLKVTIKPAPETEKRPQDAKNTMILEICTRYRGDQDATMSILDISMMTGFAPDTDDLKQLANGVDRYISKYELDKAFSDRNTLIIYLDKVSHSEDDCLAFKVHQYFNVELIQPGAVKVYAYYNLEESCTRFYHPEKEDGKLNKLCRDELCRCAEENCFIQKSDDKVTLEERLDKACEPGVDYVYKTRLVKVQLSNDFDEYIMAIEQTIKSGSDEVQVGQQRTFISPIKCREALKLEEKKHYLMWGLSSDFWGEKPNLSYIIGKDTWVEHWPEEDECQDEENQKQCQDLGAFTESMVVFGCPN
Source text: (§1) Another possibility would be the verification of hydrolysis capacity in known substrates. The proteolytic enzymes of viperidae venoms have, for example, the capacity to hydrolyze the fibrinogen and the C3 component of the human complement system, and verifying this effect is a way of inquiring about the proteolytic activity.
According to the caption on FIG. 14: (A) Human C3; (B) Human C3+venom; (C) Human C3+polypeptide. The samples were subjected to SDS-PAGE (10%) analysis under reducing conditions and the gel was stained with Coomassie blue.

BALB/c mice = experiment: Hemorrhagic activity, method of Kondo et al., intradermal injection; assay type: in vivo; settings: 4 mg L. muta venom or 50 mg recombinant polypeptide, skin assessed after 2 hours
Method: (1960, Jpn. J. Med. Sci. Biol. 13: 43-52).
After 2 hours, the animals were euthanized and the skin removed to assess the presence of hemorrhage.

human fibrinogen = molecular target: T1, human fibrinogen; experiment: Fibrinogenolytic assay (SDS-PAGE); assay type: biochemical; settings: 30 μg human fibrinogen, 5 μg polypeptide, 37° C. for 5 hours; whole L. muta venom as positive control
Method: as §1
To confirm the absence of enzymatic activity, one experiment was carried out a fibrinogenolytic assay. […] The samples were subjected to SDS-PAGE (10%) analysis under reducing conditions and the gel was stained with Coomassie blue.

Lineage HIII mice [3] = experiment: Immunosuppressive activity against particulate antigen (sheep erythrocytes), hemagglutination; assay type: in vivo; settings: 50 μg intraperitoneally 72 hours before immunization with sheep erythrocytes, […] cells/animal
Method: For the invention's polypeptide immunosuppressive activity analysis, Lineage HIII mice constitutively known as good responder to of antibody production are inoculated, intraperitoneally, and immunized with structurally complex and highly immunogenic antigens, such as sheep erythrocytes, a particulate antigen. The animals' serum is then analyzed regarding its hemagglutination activity: the lower is the hemagglutinating effect; the higher is the immunosuppressive capacity of the evaluated compound. The immunosuppressive activity can also be evaluated against a soluble antigen, such as human gamma globulin (HGG), adsorbed in aluminum hydroxide, and the antibodies titer determined by ELISA.
An untreated group was used as positive control and received only E^S. Samples of 50 μL E^S (2% v/v) were incubated with 50 μL of the sera from immunized animals (serially diluted) in 96 U-bottom well plates for 8 hours at room temperature. As negative control, E^S were incubated with PBS only. Antibody titers were that ones whose higher serum dilutions promoted agglutination of erythrocytes. The data are representative of three independent experiments. The significance between different groups was p<0.01 (FIG. 16).

[4] = system: FRET substrate Abz-FRSSRQ EDDnp; experiment: Proteolytic activity on extinguished fluorescence (FRET) substrate, spectrofluorometer; assay type: biochemical; settings: 10 μg of polypeptide, fluorescence monitored for 1 hour

| Molecule | suppression of anti-HGG antibody production (HIII mice; after 7 days) | suppression of anti-HGG antibody production (HIII mice; after 13 days) | suppression of anti-HGG antibody production (HIII mice; after 36 days) | immunogenicity (production of antibodies against P6) (Lineage HIII mice [1]; P6 (3 mg)) | inhibition of anti-HGG antibody production (HIII mice; P6 3 μg/animal or recombinant polypeptide 50 μg/animal, HGG in Al(OH)3 after 24 hours) | immunogenic potential (production of specific anti-recombinant polypeptide antibodies) (Lineage HIII mice [1]; 50 μg) | cleavage of C3 component [2] | hemorrhagic activity (BALB/c mice) | hydrolysis of fibrinogen (human fibrinogen) | hemagglutination by serum of treated animals (antibody response to sheep erythrocytes) (Lineage HIII mice [3]) | proteolytic activity on the FRET substrate [4] |
| --- | --- | --- | --- | --- | --- | --- | --- | --- | --- | --- | --- |
| AIDLADNTIGIAYTGG [P2] | suppression of anti-HGG antibody production was induced | suppression of anti-HGG antibody production was induced | suppression of anti-HGG antibody production was induced | – | – | – | – | – | – | – | – |
| NAQLLTAID [P6] | suppression of anti-HGG antibody production was induced | suppression of anti-HGG antibody production was induced | suppression of anti-HGG antibody production was induced | did not show immunogenicity | inhibition of anti-HGG antibody production | – | – | – | – | – | – |
| B1 | – | – | – | – | – | very low or no immunogenic potential | unable to cleave the C3 component | no hemorrhagic activity | not able to hydrolyze fibrinogen | unable to promote hemagglutination | absence of recombinant polypeptide proteolytic activity |
